Data on two molecules can be found in publication PMC7580722, “Design of new disubstituted imidazo[1,2-b]pyridazine derivatives as selective Haspin inhibitors. Synthesis, binding mode and anticancer biological evaluation” (Journal of Enzyme Inhibition and Medicinal Chemistry, 2020).

The subject of series [1] is Haspin activity (H3T3ph) in U-2 OS cells. Briefly: In-cell Haspin activity, H3T3ph immunofluorescence. Type of series: cell-based, human. Conditions: 24 h; for H3T3ph signal remaining in prometaphase cells (% of ctrl): 0.5 µM; for inhibition at 0.05 µM: Homo sapiens, U2OS, read-out: inhibition of cellular Haspin activity.
Series [2] deals with U-2 OS cells. Description: Cell cycle analysis by flow cytometry (propidium iodide). Conditions: for cells in S phase (% of cell total population): DMSO control 51.9%.
Description: Figure 6. […] DNA content was measured by flow cytometry and representative profiles are shown. (B) quantification of the proportion of cells in each phase of the cell cycle from the experiment described in (A). Results are mean percentage (n = 3 independent experiments).
Cellular evaluation methods
All media were supplemented with 10% fetal calf serum (unless overwise specified) and 2 mM L-glutamine and cells were cultured
F68-pluronic acid. Cells were fixed for 2h in ice-cold ethanol, then washed twice in PBS containing 0.1% F68-pluronic acid, centrifuged at 200 g and resuspended in a PBS buffer containing 1% Triton, 100 µg/ml RNase A (Thermo Scientific) and 40 µg/ml propidium iodide (Life Technologies). DNA content was determined using a FACS Canto II (BD) and the data were analyzed using FCS Express Cytometry software (De Novo Software).
Twenty thousand events were collected in each run.
A further series relates to HCT116. Briefly: Cell viability, monolayer (2D), MTS assay. The conditions noted are these: Homo sapiens, HCT-116, 48 h. Type of series: cell-based.
In the next series the test system is U-2 OS spheroids. Briefly: Spheroid (3D) viability, CellTiter-Glo. Type of series: cell-based, human. Conditions: Homo sapiens, U2OS.
For the next series, the target named is T1, HsCDK1 (Homo sapiens, UniProt P06493).
T1 construct: purchased ProQinase
Description: CDK1 kinase assay. Format: biochemical. The procedure: We therefore tested our compounds on two obvious candidates, HsCDK1 and HsPLK1 (Polo-like_kinase 1) both required for mitotic entry[50]
(§1) Values are IC50 expressed in µM and calculated from dose–response curves (each point from the curves was performed in duplicate). NR: not relevant. […]
(§2) Recombinant protein kinases were expressed and purified from E. coli (HsHaspin kinase domain aa470-798, HsCdk5/p25, RnDYRK1A kinase domain aa1-499, HsPIM1, MmCLK1) or baculovirus/Sf9 cells (HsCdk2/Cyclin A, HsCdk9/Cyclin T). Native SscCK1δ /ε and SscGSK3α/β were purified from pig brain whereas HsPlk1, HsCdk1 and HsAurora B were purchased from ProQinase and SignalChem respectively. Kinase assays were performed in specific buffers and substrates for each kinase tested in the presence of 15 µM [γ-33P] ATP (3,000 Ci/mmol, 10 mCi/ml; PerkinElmer) in a final volume of 30 µl as previously reported 51. After 30 min incubation at 30°C, the reaction mix was spotted onto GE healthcare P81 phosphocellulose paper using a FilterMate Harvester (PerkinElmer), and the filter was extensively washed with a 1% phosphoric acid solution. The wet filter-bound radioactivity was determined in the presence of 20 µl scintillation fluid (GE healthcare) with a TopCount® Scintillation and Luminescence Counter (PerkinElmer). IC50 values were calculated from dose-response curves

In a further series the test system is HBL100. Description: Cell viability, monolayer (2D), MTS assay. Format: cell-based. The conditions noted are these: Homo sapiens, HBL-100, 48 h.
For a further series, the system named is U-2 OS. Description: Cell viability, monolayer (2D), MTS assay. Format: cell-based. Conditions: Homo sapiens, U2OS, 48 h.
A further series deals with T2, HsPLK1 (Homo sapiens, UniProt P53350).
T2 construct: purchased ProQinase
Description: PLK1 kinase assay. Format: biochemical. The conditions noted are these: Table 4. The procedure:
. We therefore tested our compounds on two obvious candidates, HsCDK1 and HsPLK1 (Polo-like_kinase 1) both required for mitotic entry[50] (Table 4).
as §1, §2

For a further series, the system named is HBL100 spheroids. Briefly: Spheroid (3D) viability, CellTiter-Glo. Format: cell-based, human. Conditions: 5 µM, Figure 4(A).
Another series relates to melanoma cancer lines. More on the design: method as in PMID 28928884. Conditions: alone or in combination with Trametinib; cited from earlier work.
The next series concerns HCT116 spheroids. Briefly: Spheroid (3D) viability, CellTiter-Glo. Format: cell-based, human. The conditions noted are these: 5 µM, Figure 4(A).
In the next series the test system is SH-SY5Y. Briefly: Cell viability, monolayer (2D), MTS assay. Type of series: cell-based. Conditions: Homo sapiens, 48 h.
Another series has as its system HCT-116 cells xenografts. More on the design: method as in PMID 21804608. Conditions: nude mice xenografts of HCT-116 cells; cited from earlier work.
For another series, the system named is RPE-1. Description: Cell viability, monolayer (2D), MTS assay. Format: cell-based. Conditions: Homo sapiens, 48 h.
The target in another series is T3, HsCdk2/Cyclin A (Homo sapiens, UniProt P24941).
T3 construct: made in house; host or cells: baculovirus/Sf9 cells
Briefly: CDK2 kinase assay. Type of series: biochemical. As for the experimental part:
(§3) Values are IC50 expressed in µM and calculated from dose–response curves (each point on the curves was performed in triplicate). Selectivity indexes (SI; in brackets) are calculated as follows: SI = IC50 kinase X/IC50 Haspin. ND: not determined. *IC50 values obtained using the ADP-Glo methodology (see Experimental section, Supplementary Material). […]
(§4) A, HsCdk9/Cyclin T). Native SscCK1δ /ε and SscGSK3α/β were purified from pig brain whereas HsPlk1, HsCdk1 and HsAurora B were purchased from ProQinase and SignalChem respectively. Kinase assays were performed in […]
(§5) mCi/ml; PerkinElmer) in a final volume of 30 µl as previously reported 51. After 30 min incubation at 30°C, the reaction mix was spotted onto GE healthcare P81 phosphocellulose paper using a FilterMate Harvester (PerkinElmer), and the filter was extensively washed with a 1% phosphoric acid solution. The wet filter-bound radioactivity was determined in the presence of 20 µl scintillation fluid (GE healthcare) with a TopCount® Scintillation and Luminescence Counter (PerkinElmer). IC50 values were calculated from dose-response curves […]
(§6) Kinase activities using the ADP-Glo methodology (ADP-Glo Kinase Assay; Promega) were assayed according to the assay described in Nguyen et al. 52 and Ibrahim et al. 53. […]

Another series concerns the target T4, HsHaspin (Homo sapiens, UniProt Q8TF76).
T4 construct: aa470-798; made in house; host or cells: E. coli
T4 sequence (Q8TF76 470-798): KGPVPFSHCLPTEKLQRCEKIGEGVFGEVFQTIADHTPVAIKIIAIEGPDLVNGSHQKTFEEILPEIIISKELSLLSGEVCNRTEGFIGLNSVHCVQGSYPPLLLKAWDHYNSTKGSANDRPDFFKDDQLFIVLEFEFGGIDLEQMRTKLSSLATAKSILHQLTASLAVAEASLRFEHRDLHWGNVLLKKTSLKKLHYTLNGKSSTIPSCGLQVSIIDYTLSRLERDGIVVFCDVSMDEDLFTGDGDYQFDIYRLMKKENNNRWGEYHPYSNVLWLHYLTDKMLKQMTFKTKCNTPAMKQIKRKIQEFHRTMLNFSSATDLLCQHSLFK
Briefly: Recombinant Haspin kinase assay ([γ-33P]ATP, 15 µM ATP; some values ADP-Glo). Type of series: biochemical. Conditions: average selectivity index over the protein kinases tested vs Haspin. The procedure: as §3, §4, §5, §6

For another series, the target named is T5, Haspin (Homo sapiens, UniProt Q8TF76).
T5 construct: aa470-798; made in house; host or cells: E. coli
Description: ATP competition assay on Haspin kinase activity. Format: biochemical. The procedure: We first conducted an ATP competition assay with compound 12 on Haspin kinase activity (Figure 3(A)). We tested an ATP concentration range from 5 to 240 µM on compound 12 concentrations ranging from 0.001 to 10 µm.
Figure 3. Binding mode of selected compounds with Haspin. (A) ATP competition assay with compound 12. (B) Crystal structure of Haspin with compound 12. […] (C) Superimposition of the binding mode of compounds 12 (yellow carbon atoms) and 21 (grey carbon atoms) in Haspin active site. The three-letter amino acid code and residue number are labelled next to each side chain.

Series [3] has as its system U-2 OS cells. Briefly: Scratch wound cell migration assay (IncuCyte). Format: cell-based, human. The conditions noted are these: 0.6 µM, 0.5% FBS, normalised against DMSO control (100%).
In the next series the target is T6, HsAurora B (Homo sapiens, UniProt Q96GD4).
T6 construct: purchased SignalChem
Description: Aurora B kinase assay. Format: biochemical. As for the experimental part: as §3
as §2, with “curves […]” for “curves”
as §6

The mark [4] stands for this setting: 48 h, 2 days, Figure 4(B), read-out: U-2 OS spheroid remaining viability.

Read-outs that look alike come from different tables or passages of the source.

T1 sequence (P06493 whole entry): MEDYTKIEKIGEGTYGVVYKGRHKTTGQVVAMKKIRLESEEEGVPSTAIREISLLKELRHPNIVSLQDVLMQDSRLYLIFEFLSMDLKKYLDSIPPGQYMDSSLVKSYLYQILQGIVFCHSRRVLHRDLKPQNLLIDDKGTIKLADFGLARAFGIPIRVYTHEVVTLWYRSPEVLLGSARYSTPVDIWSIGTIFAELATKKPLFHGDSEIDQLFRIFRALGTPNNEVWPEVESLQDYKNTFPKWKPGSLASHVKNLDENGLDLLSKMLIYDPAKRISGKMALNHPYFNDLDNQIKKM
T1 sequence (P14635 whole entry partner): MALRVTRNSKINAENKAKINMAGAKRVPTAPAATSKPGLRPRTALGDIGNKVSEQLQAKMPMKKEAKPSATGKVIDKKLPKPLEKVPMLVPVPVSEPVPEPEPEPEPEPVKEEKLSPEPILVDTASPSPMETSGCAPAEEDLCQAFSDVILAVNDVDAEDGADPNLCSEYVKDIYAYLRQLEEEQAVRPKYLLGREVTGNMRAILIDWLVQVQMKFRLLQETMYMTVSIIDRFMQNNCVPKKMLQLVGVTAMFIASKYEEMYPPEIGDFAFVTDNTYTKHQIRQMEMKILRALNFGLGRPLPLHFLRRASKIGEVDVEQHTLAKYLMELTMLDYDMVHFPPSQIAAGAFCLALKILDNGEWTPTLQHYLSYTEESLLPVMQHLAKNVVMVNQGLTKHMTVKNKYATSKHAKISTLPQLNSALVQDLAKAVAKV
T2 sequence (P53350 whole entry): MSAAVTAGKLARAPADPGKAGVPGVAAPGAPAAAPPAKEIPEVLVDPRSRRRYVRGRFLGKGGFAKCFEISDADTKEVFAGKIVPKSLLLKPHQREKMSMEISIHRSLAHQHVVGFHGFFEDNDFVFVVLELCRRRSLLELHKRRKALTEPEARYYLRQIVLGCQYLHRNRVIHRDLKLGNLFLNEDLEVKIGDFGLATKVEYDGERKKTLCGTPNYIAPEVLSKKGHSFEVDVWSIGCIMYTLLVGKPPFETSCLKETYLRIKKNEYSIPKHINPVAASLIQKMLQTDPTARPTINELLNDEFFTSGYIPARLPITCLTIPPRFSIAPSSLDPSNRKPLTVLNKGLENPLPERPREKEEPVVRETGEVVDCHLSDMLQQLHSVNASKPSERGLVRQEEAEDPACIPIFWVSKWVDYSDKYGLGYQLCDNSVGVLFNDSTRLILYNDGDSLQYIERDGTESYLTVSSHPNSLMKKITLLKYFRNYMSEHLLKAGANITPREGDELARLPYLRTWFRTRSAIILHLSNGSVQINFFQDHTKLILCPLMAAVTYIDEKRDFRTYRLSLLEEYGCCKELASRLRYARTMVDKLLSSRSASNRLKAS
T6 sequence (Q96GD4 whole entry): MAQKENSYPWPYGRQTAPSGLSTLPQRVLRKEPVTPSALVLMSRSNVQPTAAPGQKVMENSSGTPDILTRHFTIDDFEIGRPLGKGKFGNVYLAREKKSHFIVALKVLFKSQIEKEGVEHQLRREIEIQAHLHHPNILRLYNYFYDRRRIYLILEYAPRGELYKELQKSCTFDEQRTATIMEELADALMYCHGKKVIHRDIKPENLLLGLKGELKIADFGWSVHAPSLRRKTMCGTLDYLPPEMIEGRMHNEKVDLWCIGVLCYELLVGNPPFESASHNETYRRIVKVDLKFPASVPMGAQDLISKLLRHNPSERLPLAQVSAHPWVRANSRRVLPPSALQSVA

As to `CCCNc1ccc2ncc(-c3ccc4[nH]ncc4c3)n2n1` [Compound 5, reference compound], the “H3T3ph signal remaining in prometaphase cells (% of ctrl)” value in [1] amounted to 2.5%. Also, the inhibition at 0.05 µM in series [1] is > 80%. For the same molecule, in the series on U-2 OS cells [2] (2.5 µM, 24 h, U-2 OS), the “cells in S phase (% of cell total population)” value turned out to be 30.9%. The “cell cycle effect (in words)” value in the series with U-2 OS cells [2] (Figure 2) is listed as “Cell cycle arrest in G2/M”. The EC50 in the series with HCT116 was 9 µM; in the series on HBL100, > 10 µM; with U-2 OS, 5.1 µM; with SH-SY5Y, > 10 µM; with RPE-1, 3.8 µM. Also, the viability at 5 µM in the series on U-2 OS spheroids (setting [4]) is 9.7%; with U-2 OS spheroids (240 h, 10 days, Figure 4(A), read-out: U-2 OS spheroid viability (% of DMSO control)), 1%; in the series on U-2 OS spheroids (48 h, Figure 4(A), read-out: U-2 OS spheroid viability (% of DMSO control)), 49%. The IC50 is 0.029 µM at HsCDK1, > 10 µM on HsPLK1 and 0.091 µM on HsCdk2/Cyclin A. Further, the “HBL-100 spheroid viability (% of DMSO control)” value with HBL100 spheroids (48 h) is reported as “without any significant effect”. Moreover, the HBL100 spheroid viability result with HBL100 spheroids (10 days) is listed as “remained mostly unresponsive”. The “effect on cell viability and mobility of melanoma lines” value with melanoma cancer lines is “affects also cell viability and mobility of several melanoma cancer lines”. Further, the HCT116 spheroid viability result was “without any significant effect” with HCT116 spheroids (48 h) and “remained mostly unresponsive” in the series with HCT116 spheroids (10 days). The “effect on angiogenesis and tumour growth” value with HCT-116 cells xenografts is “reduced angiogenesis and tumour growth”.
As for `CC[C@H](CO)Nc1ccc2ncc(-c3ccc4[nH]ncc4c3)n2n1` [Compound 12], the “H3T3ph signal remaining in prometaphase cells (% of ctrl)” value in [1] is 1.9%. For the same molecule, in series [1], the inhibition at 0.05 µM was > 80%. In the series on U-2 OS cells [2] (2.5 µM, 24 h, U-2 OS, DMSO control 12.8%), the “cells in G2/M phase (% of cell total population)” value is 29.9%. Further, in the series with U-2 OS cells [2] (2.5 µM, 24 h, U-2 OS), the “cells in S phase (% of cell total population)” value is recorded as 34.4%. In addition, the EC50 with HCT116 is > 10 µM; with HBL100, 6.6 µM; in the series on U-2 OS, > 10 µM; in the series with SH-SY5Y, > 10 µM; with RPE-1, 6.8 µM. Besides, the viability at 5 µM with U-2 OS spheroids (setting [4]) was 13.1%. The viability at 1 µM in the series on U-2 OS spheroids (240 h, 1 µM, 10 days, Figure 4(B), read-out: U-2 OS spheroid remaining viability) was determined as 66%. In the series on U-2 OS spheroids (240 h, 2.5 µM, 10 days, Figure 4(B), read-out: U-2 OS spheroid remaining viability), the viability at 2.5 µM stood at 50%. In addition, the “SI CDK1/Haspin” value at HsCDK1 (SI = IC50 CDK1/IC50 Haspin) came to 0.8. Also, the IC50 on HsCDK1 (Table 4, read-out: IC50 HsCDK1) is 0.052 µM; at HsPLK1 it was > 10 µM; on Haspin (5 µM ATP, read-out: IC50 Haspin at 5 µM ATP), 0.006 µM; on Haspin (240 µM ATP, read-out: IC50 Haspin at 240 µM ATP), 0.95 µM; at HsCdk2/Cyclin A (read-out: IC50 CDK2) it was 0.11 µM. Further, the “average SI” value at HsHaspin is listed as 24.2. In the series with U-2 OS cells [3], the “normalised wound closure after 24 h” value was 88%. Moreover, at HsAurora B, the “Aurora B inhibition (in words)” value was “did not inhibit Aurora B kinase”.
